According to PubChem BioAssay AID1421 (Emory University Molecular Libraries Screening Center, 2008):
Active and inactive are the calls of the source. The rule behind the calls is not given here.

Target: Prostaglandin E2 receptor EP2 subtype (Homo sapiens) (UniProt P43116)
Assay: compounds shifting PGE2 potency at EP2 – cell-based, human EP2, PGE2 EC50 shift, dose response (AID 1421)
Conditions: EP2-expressing cells, PGE2 EC50 shift by compound

Prostaglandin E2 receptor EP2 subtype (Homo sapiens), sequence (P43116 whole entry, looked up): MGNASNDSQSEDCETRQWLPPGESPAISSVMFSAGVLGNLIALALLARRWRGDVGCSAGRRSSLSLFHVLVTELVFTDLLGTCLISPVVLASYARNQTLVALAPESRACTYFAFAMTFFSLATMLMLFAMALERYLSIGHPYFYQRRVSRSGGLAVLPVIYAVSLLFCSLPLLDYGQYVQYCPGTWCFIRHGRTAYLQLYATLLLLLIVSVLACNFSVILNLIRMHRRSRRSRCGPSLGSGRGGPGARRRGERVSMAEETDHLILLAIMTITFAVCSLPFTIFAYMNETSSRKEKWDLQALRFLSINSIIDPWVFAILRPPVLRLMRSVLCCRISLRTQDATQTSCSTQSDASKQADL

For `Cc1ccc2nc(Nc3ccc4[nH]c(=O)[nH]c4c3)c(-n3nc(C)cc3C)nc2c1`, the outcome was “active”.
For `O=C(Nc1ccccc1Cl)N1CCSc2ccccc21`, the outcome was “active”.
With `CC1CCC(C(C)C)C(OC(=O)COC(=O)c2ccc(=O)[nH]c2)C1` (configuration not stated) the outcome was “active”.
`CCOC(=O)c1cc(CC)sc1NC(=O)c1ccc2c(c1)OCCO2` was tested, and the outcome was “active”.

Same assay, conditions: EP2-expressing cells, PGE2 EC50 shift by compound; measured here: PGE2 EC50 at 6.7 uM compound

Compared with `Cc1cc(=O)oc(C)c1C(=O)OC(C(=O)c1ccccc1)c1ccccc1` (configuration not stated), `Cc1ccccc1NC1=C(C(=O)c2ccccc2)N(C)S(=O)(=O)c2ccccc21` is 1.6-fold lower in PGE2 EC50 with compound: 1.57 nM for the first, 1.01 nM for the second.

`Fc1cccc(CSc2ncnc3c2oc2ccccc23)c1` and `Cc1cccc(-n2c(=S)[nH]c3c(oc4ccccc43)c2=O)c1` are within 1.5-fold of each other in PGE2 EC50 with compound: 2.7 nM for the first, 2.78 nM for the second.

`CCCN(CCC)C(C)C(=O)NCC1(c2ccccc2)CCCC1` (configuration not stated) and `Cc1cccc(OCCCC(=O)N2CCCc3ccccc32)c1C` are within 1.5-fold of each other in PGE2 EC50 with compound: 0.94 nM for the first, 0.71 nM for the second.

Going from `O=C(Nc1ccccc1Br)c1ccccc1-c1ccccc1` to `O=C(COc1ccccc1)Nc1ccccc1Oc1ccccc1`, the PGE2 EC50 with compound falls from 2.5 nM to 1.41 nM (1.8-fold).

First: Cc1ccc(C(=O)c2cnc3ccccc3c2-c2ccccc2)cc1
Second: Cc1ccc(CN2C(=O)CN=C(c3ccccc3)c3ccccc32)cc1
The PGE2 EC50 with compound of the first is 1.9-fold lower: 0.64 nM for the first, 1.23 nM for the second.

Compared with `C/C(=N\N(Cc1ccccc1)c1ccccc1)c1ccncc1`, `Cc1ccc(/C=N/N(Cc2ccccc2)c2ccccc2)o1` is 1.6-fold lower in PGE2 EC50 with compound: 1.48 nM for the first, 0.92 nM for the second.

First: C[C@@H]1CC[C@H]2C(C)(C)C3CC12CC[C@@]3(C)O (some centres not stated)
Second: CC12CCCC(O)(C1)C1CC(C)(C)C1CC2 (configuration not stated)
The PGE2 EC50 with compound of the first is 4.8-fold lower: 0.32 nM for the first, 1.55 nM for the second.

`O=c1c(C=NCc2ccccc2)c(NCc2ccccc2)nc2ccccn12` and `O=c1c2ccccc2c(=O)n(Cc2ccccc2)n1Cc1ccccc1` are within 1.5-fold of each other in PGE2 EC50 with compound: 0.96 nM for the first, 1.16 nM for the second.

`CCCCn1c(C)cc(C)c(S(=O)(=O)c2ccccc2C)c1=O` and `CCOc1ccccc1Cn1c(=O)oc2ccc(C)cc21` are within 1.5-fold of each other in PGE2 EC50 with compound: 1.08 nM for the first, 1.09 nM for the second.

`CCc1nc(N2CCC(C)CC2)c2oc3ccccc3c2n1` and `Cc1nn2c(N3CCCC3)cc(C(C)C)nc2c1-c1ccccc1` are within 1.5-fold of each other in PGE2 EC50 with compound: 1.23 nM for the first, 0.84 nM for the second.

First: Cc1sc2ncnc(N(C)Cc3cccs3)c2c1C
Second: Cc1ccc(C)n1-n1c(C)nc2scc(-c3cccs3)c2c1=O
The PGE2 EC50 with compound of the first is 2.5-fold higher: 2.57 nM for the first, 1.02 nM for the second.

Compared with `C/C(=C\c1ccc(C(=O)O)cc1)c1ccc2c(c1)C(C)(C)CCC2(C)C`, `CC(=O)c1ccc(-n2c(C)ccc2-c2ccccc2)cc1` is 3.2-fold higher in PGE2 EC50 with compound: 0.79 nM for the first, 2.52 nM for the second.

`CN(C)c1nccc(N(Cc2ccccc2)Cc2ccccc2)c1C#N` and `CC(C)(Oc1ccc(Cl)cc1)C(=O)N(Cc1ccccc1)c1ccccn1` are within 1.5-fold of each other in PGE2 EC50 with compound: 1.16 nM for the first, 1.07 nM for the second.

First: Cc1ccc2nc(Nc3ccc4[nH]c(=O)[nH]c4c3)c(-n3nc(C)cc3C)nc2c1
Second: Cc1cc(NC(=O)c2cc(-c3ccncc3)nc3c(C)cccc23)no1
The PGE2 EC50 with compound of the first is 2.3-fold higher: 2.69 nM for the first, 1.16 nM for the second.

`CCOC(=O)CCN(Cc1sccc1C)S(=O)(=O)c1ccc(F)cc1` and `COc1ccc(S(=O)(=O)N(Cc2cccs2)C2CCCC2)cc1` are within 1.5-fold of each other in PGE2 EC50 with compound: 1.15 nM for the first, 1.26 nM for the second.

First: Cc1cc(C)c2cc(C)c(SCC(=O)NCc3ccco3)nc2c1
Second: Cc1cccc(C)c1NC(=O)CSc1nnc(Cn2nnc(-c3ccccc3)n2)n1-c1ccccc1
The PGE2 EC50 with compound of the first is 1.6-fold higher: 1.03 nM for the first, 0.65 nM for the second.

Going from `Clc1ccccc1C1NCc2ccccc2-n2cccc21` (configuration not stated) to `O=C(Nc1ccccc1Cl)N1CCSc2ccccc21`, the PGE2 EC50 with compound rises from 0.34 nM to 1.55 nM (4.6-fold).

Going from `CCOC(=O)c1cnn(-c2nc(-c3ccc(F)cc3)cs2)c1C(F)(F)F` to `Cc1scc(-c2n[nH]c(=S)n2Cc2ccccc2)c1C`, the PGE2 EC50 with compound rises from 1.04 nM to 2.55 nM (2.5-fold).

`CCc1ccc(OCc2n[nH]c(=S)n2C(C)CCCC(C)C)cc1` (configuration not stated) and `Cc1ccc(OCc2n[nH]c(=S)n2Cc2ccccc2)cc1` are within 1.5-fold of each other in PGE2 EC50 with compound: 1.4 nM for the first, 1.17 nM for the second.

First: CC1Cc2ccccc2N1CC(=O)NC(c1ccccc1)c1ccccc1 (configuration not stated)
Second: CC1C(c2ccccc2)N(C)C(c2ccccc2)C(C)C1(O)C#Cc1ccccc1 (configuration not stated)
The PGE2 EC50 with compound of the first is 4.6-fold higher: 1.48 nM for the first, 0.32 nM for the second.

`c1ccc(-c2n[nH]nc2-c2ccccc2)cc1` and `c1ccc(-c2noc(-c3ccccc3-c3ccccc3)n2)cc1` are within 1.5-fold of each other in PGE2 EC50 with compound: 0.9 nM for the first, 0.84 nM for the second.

`Cc1c(OCc2ccccc2)c(=O)ccn1Cc1ccc(Cl)cc1` and `C=CCC(NCc1ccccc1)c1ccc(Cl)cc1` (configuration not stated) are within 1.5-fold of each other in PGE2 EC50 with compound: 1.02 nM for the first, 1.14 nM for the second.

`CN(C)c1oc(-c2ccccc2Cl)nc1P(=O)(c1ccccc1)c1ccccc1` and `Cc1ccc(-c2nc(P(=O)(c3ccccc3)c3ccccc3)c(N3CCOCC3)o2)cc1` are within 1.5-fold of each other in PGE2 EC50 with compound: 1.17 nM for the first, 1.18 nM for the second.

`O=C(CN1CCCCCC1)Nc1ccccc1Oc1ccccc1` and `CCOC(=O)c1c(-c2ccc(C)o2)csc1NC(=O)CN1CCCCC1` are within 1.5-fold of each other in PGE2 EC50 with compound: 0.96 nM for the first, 0.73 nM for the second.

First: COc1cc2c(cc1OC)-c1cc(Nc3ccc4c(c3)OCCO4)nc(=O)n1CC2
Second: COc1ccc(Nc2nc(-c3cc4cccc(OC)c4oc3=O)cs2)cc1
The PGE2 EC50 with compound of the first is 1.9-fold higher: 2.5 nM for the first, 1.29 nM for the second.

Going from `Cc1cccc2cc(CN(Cc3cccs3)C3(c4nnnn4C4CCCC4)CCCC3)c(=O)[nH]c12` to `O=c1c2c(n3cnnc3n1C1CCCCC1)-c1ccccc1CC21CCCCC1`, the PGE2 EC50 with compound falls from 1.08 nM to 0.33 nM (3.3-fold).

`CCCc1nc(SC2CCCC2)c2c(=O)n(C)c(=O)n(C)c2n1` and `COc1ccc2cc3c(N)nn(C(=O)C4CCC(C(C)(C)C)CC4)c3nc2c1` (configuration not stated) are within 1.5-fold of each other in PGE2 EC50 with compound: 0.75 nM for the first, 1.08 nM for the second.

Compared with `Cc1ccc(-c2csc(Nc3ccc(C(=O)O)cc3)[n+]2Cc2ccccc2)cc1`, `COc1ccc(N2C(=O)N(Cc3ccc(C)cc3)c3ccccc3S2(=O)=O)cc1` is 3.6-fold higher in PGE2 EC50 with compound: 0.77 nM for the first, 2.81 nM for the second.

`S=c1[nH]nc(CSc2nc3ccccc3s2)n1Cc1ccccc1` and `CN(Cc1ccccc1)c1nc2c(c(=O)[nH]c(=O)n2C)n1Cc1ccccc1Cl` are within 1.5-fold of each other in PGE2 EC50 with compound: 0.72 nM for the first, 1.05 nM for the second.

`Cc1ccc(S(=O)(=O)c2ccc(Oc3cccc(C)c3)cc2)cc1` and `COc1ccc(S(=O)(=O)N(Cc2ccccc2)Cc2nc(-c3ccccc3)no2)cc1` are within 1.5-fold of each other in PGE2 EC50 with compound: 1.41 nM for the first, 1.16 nM for the second.

`O=C(/C(=C/O)N=Nc1ccccc1)c1ccc(Cl)cc1` and `COc1cc2ccccc2cc1C(=O)NC(=S)Nc1cccc(C(=O)O)c1` are within 1.5-fold of each other in PGE2 EC50 with compound: 1.12 nM for the first, 0.75 nM for the second.

Compared with `C(=N\N1CCN(C2c3ccccc3-c3ccccc32)CC1)/c1cccnc1`, `CC(C)(C)c1nc2ccccc2c(=O)n1N1C(=O)c2ccccc2C1=O` is 1.9-fold lower in PGE2 EC50 with compound: 1.54 nM for the first, 0.82 nM for the second.

`COc1ccc(-c2nn3c(-c4ccccc4)nnc3s2)cc1` and `CCSC1=N/C(=C\c2ccccc2)C(=O)N1c1ccc(OC)cc1` are within 1.5-fold of each other in PGE2 EC50 with compound: 0.66 nM for the first, 0.75 nM for the second.

`CC1CCC(C(C)C)C(OC(=O)COC(=O)c2ccc(=O)[nH]c2)C1` (configuration not stated) and `CCOC(=O)c1cc(CC)sc1NC(=O)c1ccc2c(c1)OCCO2` are within 1.5-fold of each other in PGE2 EC50 with compound: 1.4 nM for the first, 0.97 nM for the second.

Going from `c1ccc(Cc2nnc(Sc3ccccc3)c3ccccc23)cc1` to `Cc1ccccc1Cn1c2ccccc2c2cn[nH]c(=O)c21`, the PGE2 EC50 with compound falls from 2.76 nM to 1.15 nM (2.4-fold).

First: CC(C)c1ccc(/C=N/Nc2cc(N3CCOCC3)nc(N3CCOCC3)n2)cc1
Second: O=C(Nc1cccc(Cl)c1N1CCCC1)c1ccc(Br)o1
The PGE2 EC50 with compound of the first is 1.6-fold lower: 0.98 nM for the first, 1.61 nM for the second.

Going from `CCCCOC(=O)Sc1nc2ccccc2o1` to `Nn1cnc2c(c1=O)C1(CCCCC1)Cc1ccccc1-2`, the PGE2 EC50 with compound falls from 2.48 nM to 0.81 nM (3.1-fold).

Compared with `O=C(NCc1ccco1)C(c1cccs1)N(C(=O)Cc1cccs1)c1ccccc1` (configuration not stated), `C=CCN1C(=O)N(/C=C/C)c2cccc3cccc1c23` is 1.9-fold higher in PGE2 EC50 with compound: 1.49 nM for the first, 2.79 nM for the second.

`CCOC(=O)c1c(N)sc2c1CCC(CC)C2` (configuration not stated) and `Nc1[nH]n2c(=O)c3c(nc2c1N=Nc1ccccc1)CCCC3` are within 1.5-fold of each other in PGE2 EC50 with compound: 1.5 nM for the first, 2.09 nM for the second.
